Where a name gives a salt, the structure may show the parent alone.
Experiment: in vitro
Conditions: rat, gh3-tre-luc cells, AC50 (uM) modified / 1000

Structure (SMILES) | CC50 at 24 h
COc1cc2nc(N3CCN(C(=O)C4COc5ccccc5O4)CC3)nc(N)c2cc1OC (stereo not shown) [Doxazosin mesylate] | 25.4 µM
CCCCCCCCCCCCCCOS(=O)(=O)O [Sodium myristyl sulfate] | 32 µM
CC[N+]1(CC)CCC(=C(c2ccccc2)c2ccccc2)C1C (stereo not shown) [Prifinium bromide] | > 50 µM
CC(Oc1ccccc1)C(=O)N[C@@H]1C(=O)N2[C@@H]1SC(C)(C)[C@@H]2C(=O)O (stereo partly shown) [Phenethicillin potassium] | > 20 µM
CCOC(=O)c1ccc(C)cc1 [Ethyl 4-methylbenzoate] | > 90 µM
CC1(C)N=C(N)N=C(N)N1c1ccc(Cl)cc1 [Cycloguanil hydrochloride] | > 50 µM
Cc1cccc(OCCOc2cccc(C)c2)c1 [1,1'-[Ethane-1,2-diylbis(oxy)]bis(3-methylbenzene)] | > 100 µM
CCCCC(CC)CN (stereo not shown) [2-Ethylhexylamine] | > 90 µM
Nc1ccn([C@@H]2O[C@H](CO)[C@@H](O)C2(F)F)c(=O)n1 [Gemcitabine hydrochloride] | 0.153 µM
C[C@H]1O[C@H](O[C@H]2[C@H](O)[C@@H](O)[C@@H](O)[C@H](O)[C@@H]2O)[C@@H](N)C[C@@H]1NC(=N)C(=O)O [Kasugamycin hydrochloride] | > 90 µM
O=C1C=CCCC1 [2-Cyclohexen-1-one] | > 90 µM
CC(C)c1ccc2sc3ccccc3c(=O)c2c1 [2-(Propan-2-yl)-9H-thioxanthen-9-one] | > 90 µM
O=C1OC(=O)C2C3C=CC(C3)C12 (stereo not shown) [2-Norbornene-5,6-dicarboxylic anhydride] | > 90 µM
CC(C)(CCl)C(=O)Cl [3-Chloro-2,2-dimethylpropanoyl chloride] | > 90 µM
CCCC(=O)Nc1c(I)cc(I)c(CC(CC)C(=O)O)c1I (stereo not shown) [Sodium tyropanoate] | 26.5 µM
CCCNC(C)C(=O)Nc1ccccc1C (stereo not shown) [Prilocaine hydrochloride] | > 50 µM
Cc1ncc(CO)c(C=O)c1O [Pyridoxal] | > 50 µM
OCCN(CCO)c1ccccc1 [N-Phenyldiethanolamine] | > 90 µM
C[C@]12CC[C@@H]3c4ccc(O)cc4CC[C@H]3[C@@H]1CC[C@H]2O [17alpha-Estradiol] | > 90 µM

Structure (SMILES) | CC50 at 24 h
CC1(C)O[C@@H]2C[C@H]3[C@@H]4C[C@H](F)C5=CC(=O)C=C[C@]5(C)[C@H]4[C@@H](O)C[C@]3(C)[C@]2(C(=O)CO)O1 [Flunisolide] | > 20 µM
FCOC(C(F)(F)F)C(F)(F)F [Sevoflurane] | > 50 µM
O=C(O)CS [Thioglycolic acid] | > 90 µM
O=C(O)CNC(=O)CNC(=O)CNC(=O)CSC(=O)c1ccccc1 [Betiatide] | > 50 µM
COc1ccc(C(=O)Nc2ccccc2)cc1[N+](=O)[O-] [4-Methoxy-3-nitro-N-phenylbenzamide] | > 90 µM
CCc1cccc(C)c1N(C(=O)CCl)C(C)COC (stereo not shown) [Metolachlor] | > 90 µM
CCc1cnc(C2=NC(C)(C(C)C)C(=O)N2)c(C(=O)O)c1 (stereo not shown) [Imazethapyr] | > 90 µM
Cc1ccc(C)c(O)c1C [2,3,6-Trimethylphenol] | > 90 µM
Oc1ccc(Cc2ccccc2)cc1 [4-Benzylphenol] | 84.1 µM
Cc1cc(Nc2ccc(O)cc2)ccc1N [4-Amino-4'-hydroxy-3-methyldiphenylamine] | 11.4 µM
CC(C)[C@@H](N)C(=O)O [D-Valine] | > 50 µM
CCCCCC(N)=O [Hexanamide] | > 90 µM
Fc1ccc(C(OCCN2CCN(CCCc3ccccc3)CC2)c2ccc(F)cc2)cc1 [GBR 12909 dihydrochloride] | 8.65 µM
O=C(Oc1cccc2cccnc12)c1ccccc1 [Benzoxiquine] | 12 µM
CC1=CC(=O)CCC1 [3-Methyl-2-cyclohexen-1-one] | > 90 µM
O=C(c1ccccc1)C(O)c1ccccc1 (stereo not shown) [Benzoin] | > 90 µM
CC(C)Nc1cccnc1N1CCN(C(=O)c2cc3cc(NS(C)(=O)=O)ccc3[nH]2)CC1 [Delavirdine] | > 50 µM
C[C@](N)(Cc1ccc(O)cc1)C(=O)O [Metyrosine] | > 50 µM
C[C@@H]1CC[C@@]2(OC1)O[C@H]1[C@@H](O)[C@H]3[C@@H]4CC[C@H]5C[C@@H](O[C@@H]6O[C@H](CO)[C@H](O[C@@H]7O[C@H](CO)[C@@H](O)[C@H](O[C@@H]8OC[C@@H](O)[C@H](O)[C@H]8O)[C@H]7O[C@@H]7O[C@H](CO)[C@H](O)[C@H](O[C@@H]8O[C@H](CO)[C@@H](O)[C@H](O)[C@H]8O)[C@H]7O)[C@H](O)[C@H]6O)[C@H](O)C[C@]5(C)[C@H]4CC[C@]3(C)[C@H]1[C@@H]2C [Digitonin] | 1.67 µM

Structure (SMILES) | CC50 at 24 h
CC(=O)c1ccc(S(=O)(=O)NC(=O)NC2CCCCC2)cc1 [Acetohexamide] | > 90 µM
Nn1cnnc1 [4-Amino-1,2,4-triazole] | > 90 µM
CC(=O)[C@H]1CC[C@H]2[C@@H]3CC=C4C[C@@H](O)CC[C@]4(C)[C@H]3CC[C@]12C [Pregnenolone] | > 90 µM
CC(C)C[C@H]1C(=O)N2CCC[C@H]2[C@]2(O)O[C@](NC(=O)[C@@H]3C=C4c5cccc6[nH]c(Br)c(c56)C[C@H]4N(C)C3)(C(C)C)C(=O)N12 [Bromocriptine] | > 50 µM
CCC(=O)[C@@]1(C)[C@H](C)C[C@H]2[C@@H]3CCC4=CC(=O)C=C[C@]4(C)[C@H]3[C@@H](O)C[C@@]21C [Rimexolone] | > 20 µM
CNS(=O)(=O)CCc1ccc2[nH]cc(C3CCN(C)CC3)c2c1 [Naratriptan hydrochloride] | > 50 µM
O=C(O)CC(C(=O)O)S(=O)(=O)O (stereo not shown) [Sulfosuccinic acid] | > 90 µM
CC1(C)S[C@@H]2[C@H](NC(=O)C(C(=O)O)c3ccccc3)C(=O)N2[C@H]1C(=O)O (stereo partly shown) [Carbenicillin disodium] | > 50 µM
CN[C@@H](C)[C@H](O)c1ccccc1 [Ephedrine hydrochloride] | > 50 µM
c1ccc2nc(N3CCNCC3)ccc2c1 [Quipazine maleate] | 36.9 µM
Nc1c(Cl)cc(Cl)cc1Cl [2,4,6-Trichloroaniline] | > 90 µM
CCCCOCCOCCO [2-(2-Butoxyethoxy)ethanol] | > 90 µM
COC=O [Methyl formate] | > 8 µM
COc1ccc(C)cc1[N+](=O)[O-] [1-Methoxy-4-methyl-2-nitrobenzene] | > 90 µM
Cc1nc(C)nc(N2C[C@@H](C)N(c3ccnc([C@@H](C)O)n3)[C@@H](C)C2)n1 [CP-642931] | > 50 µM
Cc1c(C(=O)O)c(O)cc2c1C(=O)c1c(O)c(C3OC(CO)C(O)C(O)C3O)c(O)c(O)c1C2=O (stereo not shown) [Cochineal] | 29.1 µM
CCCCCCOc1ccc(N)cc1 [4-Hexyloxyaniline] | > 90 µM
O=C1c2c(O)cccc2Cc2cccc(O)c21 [Anthralin] | > 90 µM

Same assay, conditions: rat, gh3-tre-luc cells, AC50 (uM) modified / 1000, Tox21_110001=Tox21_200363; viability, 1 nM T3 present, 24 h

Structure (SMILES) | CC50 at 24 h
C=CC(C)=O [Methyl vinyl ketone] | > 90 µM

Same assay, conditions: rat, gh3-tre-luc cells, AC50 (uM) modified / 1000, Tox21_110001=Tox21_303381; viability, 1 nM T3 present, 24 h

Structure (SMILES) | CC50 at 24 h
CCC(=O)c1ccc(Cl)cc1 [Ethyl 4-chlorophenyl ketone] | > 90 µM
